Source: ChEMBL document CHEMBL1136079, “Molecular design, synthesis, and structure-Activity relationships leading to the potent and selective p56(lck) inhibitor BMS-243117” (Bioorg Med Chem Lett, 2003)
pIC50: −log10 of the molar value.

Target: Tyrosine-protein kinase Lck (Homo sapiens, UniProt P06239)
Assay: In vitro inhibition of phosphorylation of an exogenous substrate by human p56 Lck tyrosine kinase expressed as a His-tagged protein in insect cells using a baculovirus expression system
Settings: not given

Tyrosine-protein kinase Lck, sequence (P06239 whole entry): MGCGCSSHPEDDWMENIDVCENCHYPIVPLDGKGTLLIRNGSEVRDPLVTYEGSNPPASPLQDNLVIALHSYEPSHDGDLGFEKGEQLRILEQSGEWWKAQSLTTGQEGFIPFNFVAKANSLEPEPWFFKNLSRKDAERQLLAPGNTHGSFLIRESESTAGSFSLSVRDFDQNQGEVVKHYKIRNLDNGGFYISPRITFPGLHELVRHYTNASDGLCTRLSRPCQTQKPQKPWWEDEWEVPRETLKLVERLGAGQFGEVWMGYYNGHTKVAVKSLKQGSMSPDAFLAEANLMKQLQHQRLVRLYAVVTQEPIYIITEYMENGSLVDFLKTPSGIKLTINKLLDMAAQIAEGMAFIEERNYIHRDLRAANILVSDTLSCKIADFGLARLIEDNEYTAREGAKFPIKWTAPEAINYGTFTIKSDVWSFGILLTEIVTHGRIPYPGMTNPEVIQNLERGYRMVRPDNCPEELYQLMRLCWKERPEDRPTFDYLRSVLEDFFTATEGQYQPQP

SMILES	pIC50
Cc1cccc(Cl)c1NC(=O)c1ccc2nc(NC(=O)NC3CC3)sc2c1	7.05
Cc1cccc(Cl)c1NC(=O)c1ccc2nc(NC(=O)NCc3ccco3)sc2c1	7.41
Cc1cccc(C)c1NC(=O)c1ccc2nc(NC(=O)C(C)C)sc2c1	5.74
Cc1cccc(C)c1NC(=O)c1ccc2nc(NC(=O)C3CC3C)sc2c1 (configuration not stated)	7.96
CCC(NC(=O)Nc1nc2ccc(C(=O)Nc3c(C)cccc3Cl)cc2s1)c1ccccc1 (configuration not stated)	7.72
Cc1cccc(Cl)c1NC(=O)c1ccc2nc(NC(=O)Nc3ncccn3)sc2c1	< 5.51
Cc1ccccc1CC(=O)Nc1nc2ccc(C(=O)Nc3c(C)cccc3Cl)cc2s1	6.25
CC(=O)c1cccc(O)c1NC(=O)c1ccc2nc(NC(=O)OC(C)(C)C)sc2c1	< 4.90
Cc1cccc(Cl)c1NC(=O)c1ccc2nc(NC(=O)NCCN(C)C)sc2c1	7.52
Cc1cc(C)c(NC(=O)c2ccc3nc(NC(=O)NCc4ccccc4)sc3c2)c(C)c1	5.76
Cc1cccc(Cl)c1NC(=O)c1ccc2nc(NC(=O)Nc3ccccn3)sc2c1	5.70
Cc1cc(C)c(NC(=O)c2sc(N)nc2C)c(C)c1	5.49
Cc1cccc(Cl)c1NC(=O)c1ccc2nc(NC(=O)NCCC3CCCN3C)sc2c1 (configuration not stated)	8.15
Cc1cccc(Cl)c1NC(=O)c1ccc2nc(NC(=O)OC(C)(C)C)sc2c1	7.15
Cc1cccc(Cl)c1NC(=O)c1ccc2nc(NC(=O)NCc3ccc(F)cc3)sc2c1	7.06
Cc1cc(C)c(NC(=O)c2ccc3nc(NC(=O)c4ccccc4)sc3c2)c(C)c1	< 4.90
CCC(C)(C)NC(=O)Nc1nc2ccc(C(=O)Nc3c(C)cccc3C)cc2s1	7.10

SMILES	pIC50
Cc1cccc(Cl)c1NC(=O)c1ccc2nc(NC(=O)NC3CCCC3)sc2c1	7.35
Cc1cccc(C)c1NC(=O)c1ccc2nc(NC(=O)NC(C)(C)C)sc2c1	7.00
Cc1cccc(Cl)c1NC(=O)c1ccc2nc(NC(=O)NC(C)(C)C)sc2c1	8.40
Cc1cccc(Br)c1NC(=O)c1ccc2nc(NC(=O)OC(C)(C)C)sc2c1	5.37
Cc1cccc(Cl)c1NC(=O)c1ccc2nc(NC(=O)C3CCC3)sc2c1	6.18
Cc1cc(Br)ccc1NC(=O)c1ccc2nc(NC(=O)OC(C)(C)C)sc2c1	< 4.90
COc1cccc(OC)c1NC(=O)c1ccc2nc(NC(=O)OC(C)(C)C)sc2c1	< 4.90
Cc1cccc(Cl)c1NC(=O)c1ccc2nc(NC(=O)C3CC3)sc2c1	8.05
Cc1cccc(Cl)c1NC(=O)c1ccc2nc(NC(=O)Nc3ccc(F)cc3)sc2c1	6.91
Cc1cccc(C)c1NC(=O)c1ccc2nc(NC(=O)C3CC3)sc2c1	7.82
Cc1cccc(Cl)c1NC(=O)c1ccc2nc(NC(=O)C3CCCO3)sc2c1 (configuration not stated)	6.57
Cc1cc(C)c(NC(=O)c2ccc3nc(N)sc3n2)c(C)c1	< 4.90
Cc1cccc(Cl)c1NC(=O)c1ccc2nc(NC(=O)NC3CC(C)(C)NC(C)(C)C3)sc2c1	8.40
CCC(C)(C)NC(=O)Nc1nc2ccc(C(=O)Nc3c(C)cccc3Cl)cc2s1	7.26
Cc1cccc(CCO)c1NC(=O)c1ccc2nc(NC(=O)OC(C)(C)C)sc2c1	< 4.90
Cc1cccc(C)c1NC(=O)c1ccc2nc(NC(=O)NC3CC3)sc2c1	7.05

Continued, values first:

pIC50	SMILES
7.15	Cc1cc(C)c(NC(=O)c2ccc3nc(NC(=O)NC(C)(C)C)sc3c2)c(C)c1
< 4.90	Cc1cc(C)c(NC(=O)c2ccc3nc(NC(=O)OC(C)(C)C)sc3c2)c(C)c1Br
6.51	Cc1cc(CO)cc(C)c1NC(=O)c1ccc2nc(NC(=O)OC(C)(C)C)sc2c1
7.05	Cc1cccc(C)c1NC(=O)c1ccc2nc(NC(=O)OC(C)(C)C)sc2c1
6.52	Cc1cc(C)c(NC(=O)c2ccc3nc(NC(=O)NC4CC4)sc3c2)c(C)c1
6.15	Cc1cc(C)c(NC(=O)c2ccc3nc(NC(=O)C(C)C)sc3c2)c(C)c1
4.64	Cc1cc(C)c(NC(=O)c2ccc3nc(N)oc3c2)c(C)c1
< 4.90	Cc1cc(C)c(NC(=O)c2cccc3sc(NC(=O)OC(C)(C)C)nc23)c(C)c1
6.54	Cc1cc(C)c(NC(=O)c2ccc3nc(NC(=O)OC(C)(C)C)sc3c2)c(C)c1
6.48	CCCCNC(=O)Nc1nc2ccc(C(=O)Nc3c(C)cc(C)cc3C)cc2s1
5.25	Cc1cc(C)c(NC(=O)c2cc(C)c3nc(NC(=O)OC(C)(C)C)sc3c2)c(C)c1
6.70	Cc1cc(C)c(NC(=O)c2ccc3nc(NC(=O)OC(C)(C)C)sc3c2)c(Br)c1
5.49	Cc1cc(C)c(NC(=O)c2ccc3[nH]c(NC(=O)OC(C)(C)C)nc3c2)c(C)c1
5.14	Cc1cc(C)c(NC(=O)c2ccc3nc(NC(=O)OC(C)(C)C)oc3c2)c(C)c1
5.52	Cc1cc(C)c(NC(=O)c2sc(NC(=O)OC(C)(C)C)nc2C)c(C)c1
4.82	Cc1cc(C)c(NC(=O)c2ccc3nc(N)sc3c2)c(C)c1
< 4.90	Cc1cc(C)c(NC(=O)c2ccc3sc(NC(=O)OC(C)(C)C)nc3c2)c(C)c1
6.96	Cc1cc(Br)cc(C)c1NC(=O)c1ccc2nc(NC(=O)OC(C)(C)C)sc2c1
5.51	COC(=O)c1cc(C)c(NC(=O)c2ccc3nc(NC(=O)OC(C)(C)C)sc3c2)c(C)c1
7.70	Cc1cc(C)c(NC(=O)c2ccc3nc(NC(=O)C4CC4)sc3c2)c(C)c1
< 4.90	Cc1cc(C)c(NC(=O)c2ccc3nc(NC(=O)OC(C)(C)C)sc3c2)c(Br)c1C
< 4.90	Cc1cc(C)c(NC(=O)c2ccc3[nH]c(N)nc3c2)c(C)c1
< 4.90	Cc1ccc(C(C)C)c(C)c1NC(=O)c1ccc2nc(NC(=O)OC(C)(C)C)sc2c1
< 4.90	Cc1cc(C)c(NC(=O)c2cccc3nc(NC(=O)OC(C)(C)C)sc23)c(C)c1
< 4.90	Cc1cc(C)c(NC(=O)c2ccc3nc(NC(=O)OC(C)(C)C)sc3n2)c(C)c1
5.36	Cc1cc(C)c(NC(=O)c2ccc3nc(NC(=O)OC(C)(C)C)sc3c2Cl)c(C)c1
< 4.90	Cc1cc(C)c(NC(=O)c2cc3sc(NC(=O)OC(C)(C)C)nc3cc2Cl)c(C)c1
< 4.90	COc1cc(C(=O)Nc2c(C)cc(C)cc2C)nc2sc(NC(=O)OC(C)(C)C)nc12

Test system: not listed separately
Assay: Inhibition of anti-CD3, anti-CD28 induced PBL T-cell proliferation
Settings: Homo sapiens

SMILES	pIC50
Cc1cccc(Cl)c1NC(=O)c1ccc2nc(NC(=O)NCCC3CCCN3C)sc2c1 (configuration not stated)	6.02
Cc1cccc(Cl)c1NC(=O)c1ccc2nc(NC(=O)NC(C)(C)C)sc2c1	5.96
Cc1cccc(Cl)c1NC(=O)c1ccc2nc(NC(=O)NC3CC(C)(C)NC(C)(C)C3)sc2c1	5.55
Cc1cccc(Cl)c1NC(=O)c1ccc2nc(NC(=O)C3CC3C)sc2c1 (configuration not stated)	5.80
Cc1cccc(Cl)c1NC(=O)c1ccc2nc(NC(=O)C3CC3CN(C)C)sc2c1 (trans isomer)	5.45
Cc1cccc(Cl)c1NC(=O)c1ccc2nc(NC(=O)C3CC3CO)sc2c1 (trans isomer)	5.84
